According to patent US20180153840A1, “THE COMPOSITIONS OF GLYCEROL AND /OR NON-TOXIC AMINO ACIDS FOR INHIBITING AND DESTROYING BIOFILM, INCLUDING RELATED METHODS” (priority 2015, published 2018):
Entries after “also recorded” stand apart in the source; their conditions may differ.

Assays:
S. aureus biofilm [1] = test: Bacterial biofilm inhibition assay; assay type: cell-based, Staphylococcus aureus; details: for activation at 1 %: Staphylococcus aureus, read-out: Promote B Biofilm
Procedure: (§1) For fungal biofilm assays, all solutions were prepared in RPMI 1640 medium. All bacterial biofilm solutions were prepared in Trypic Soy Broth (TSB), supplemented with 1% glucose (henceforth referred to as TSB-G). All subsequent procedures were performed in a manner that maintained sterility. A solution of each amino acid to be tested was prepared in weight to volume concentrations ranging from 0.1-5.0%. Amino acids were also tested in combinations. Compound solutions were homogenized with gentle agitation in the dark (4° C., 24 hours) before use.
(§2) All biofilm assays were performed using 384-well non-tissue culture treated polystyrene plates. The fungal species tested are as follows: Candida albicans, Candida guilliermondii Candida parapsilosis, Candida glabrata, Candida tropicalis and Candida dubliniensis. The bacterial species tested are as follows: Staphylococcus aureus (standard wild type and methicillin-resistant strain USA300), Escherichia coli, Pseudomonas aeruginosa and Staphylococcus epidermidis.
(§3) Bacterial strains were streaked on Blood Agar plates (5% sheep blood in Tryptic Soy Broth) and incubated at 37° C. for 24 hours. A single colony from each strain to be tested was inoculated in a TSB broth and grown for 12 hours, at 37° C. with shaking (225 rpm).
(§4) For the bacterial biofilm inhibition assays, 1 μL of saturated overnight cell culture was added to either 80 μL of TSB-G, or TSB-G supplemented with the amino acid compound solution to be tested, in a 384-well plate. The cells were allowed to adhere to the plate for 60 minutes at 37° C. without shaking. The media was carefully aspirated and 80 μL of TSB-G, or TSB-G supplemented with the amino acid compound solution was added to the plate. The plate was further incubated for 24 hours at 37° C. without shaking. Media was carefully aspirated and the biofilm was measured for bacterial cell concentration by optical density at 600 nm. Eight or twelve replicates were performed for each tested condition and the reported values were normalized to the control (TSB-G media only).

S. aureus biofilm [2] = test: Bacterial biofilm disruption assay; assay type: cell-based; details: Staphylococcus aureus; for activation at 1 %: read-out: Promote B Biofilm; for inhibition at 1 %: read-out: Reduce B Biofilm
Procedure: as §1, §2, §3
(§5) For the bacterial biofilm disruption assays, 80 μL of TSB-G was added to the plate, along with 1 μL of overnight cell culture. The cells were allowed to adhere to the plate for 60 minutes at 37° C. without shaking. The media was carefully aspirated and 80 μL of TSB-G was added to the plate. The plate was further incubated for 24 hours at 37° C. without shaking. Media was carefully aspirated from the mature biofilm and 80 μL of TSB-G, or TSB-G supplemented with the amino acid to be tested, was gently added to the plate. The plate was further incubated for 24 hours at 37° C. without shaking. Media was aspirated and the biofilm was measured for bacterial cell concentration by optical density at 600 nm. Twelve replicates were performed for each tested condition and the reported values were normalized to the control (TSB-G media only).

bacterial biofilms = test: Bacterial biofilm assays (sustained inhibition and/or disruption); assay type: cell-based, Staphylococcus aureus; details: for support (improve) bacterial biofilm growth: based on the two assays (sustained inhibition and/or disruption); for anti-biofilm properties against bacterial biofilms: individually, about 0.1 to about 5.0% weight to volume (cystathionine 0.2%), at least one of the two assays
Procedure: as §1, §2, §3, §4, §5

[3] = tested on: bacterial and fungal biofilms; test: In vitro testing on bacterial and fungal biofilms; assay type: cell-based; details: for effect on bacterial and fungal biofilm (in words): in vitro; for neutral, effect on bacterial or fungal biofilms: both assays (sustained inhibition and disruption)
Procedure: as §1, §2
Fungal strains were streaked on Yeast Peptone Dextrose (YPD) agar plates and incubated at 30° C. for 48 hours. A single colony from each strain to be tested was inoculated into YPD broth and grown for 12 hours, at 30° C., shaking at 225 rpm. For the fungal biofilm inhibition assay, 1 μl of saturated overnight cell culture was added to either 80 μL of RPMI-1640 or RPMI-1640 supplemented with the amino acid compound solution to be tested, in a 384-well plate. The cells were allowed to adhere to the plate for 90 minutes at 37° C. with shaking (350 rpm). Loosely bound cells were washed once with phosphate buffered saline (PBS) and 80 ul of RPMI-1640, or RPMI-1640 supplemented with the amino acid compound solution was added to the plate. The plate was further incubated for 24 hours at 37° C. with shaking (350 rpm). Media was carefully aspirated and the biofilm was measured for fungal cell concentration by optical density at 600 nm. Twelve replicates were performed for each tested condition and the reported values were normalized to the control (RPMI-1640 media only).
For the fungal biofilm disruption assays, 80 μL of RPMI-1640 was added to the plate, along with 1 μL of overnight cell culture. The cells were allowed to adhere to the plate for 90 minutes at 37° C. with shaking (350 rpm). Loosely bound cells were washed once with PBS and 80 μL of RPMI-1640 was added to the plate. The plate was further incubated for 24 hours at 37° C. with shaking (350 rpm). Media was carefully aspirated from the mature biofilm and 80 μL of RPMI-1640, or RPMI-1640 supplemented with the amino acid compound solution to be tested, was gently added to the plate. The plate was further incubated for 24 hours at 37° C. with shaking (350 rpm). Media was carefully aspirated and the biofilm was measured for fungal cell concentration by optical density at 600 nm. Twelve replicates were performed for each tested condition and the reported values are normalized to the control (RPMI-1640 media only).
as §3
as §4, with “nm.” for “nm. Eight or twelve replicates were performed for each tested condition and the reported values were normalized to the control (TSB-G media only).”

[4] = sustained inhibition assay, S. aureus, 1% amino acid, p≤0.001
[5] = disruption assay, S. aureus, 1% amino acid, p≤0.001

SMILES | activation at 1 % (S. aureus biofilm [1]; [4]) | activation at 1 % (S. aureus biofilm [2]; [5]) | support (improve) bacterial biofilm growth (bacterial biofilms) | effect on bacterial and fungal biofilm (in words) [3] | other results
N[C@@H](Cc1ccccc1)C(=O)O [Phenylalanine, L-phenylalanine] | 10 to 30% | 10 to 30% | support (improve) bacterial biofilm growth | promote bacterial and fungal biofilm | 
NC(=O)CC[C@H](N)C(=O)O [Glutamine, L-glutamine] |  |  |  |  | neutral, effect on bacterial or fungal biofilms [3]: no effect on bacterial or fungal biofilms
NCCC(=O)O [Beta-Alanine, Beta-alanine] |  |  |  |  | Reduce B Biofilm (S. aureus biofilm [1]; [4]): • (a single dot (●) signifies an effect in a range of about 10 to about 30% change); anti-biofilm properties against bacterial biofilms (bacterial biofilms): anti-biofilm properties against bacterial biofilms
N[C@@H](CO)C(=O)O [Serine, L-serine] | 10 to 30% | 10 to 30% | support (improve) bacterial biofilm growth | promote bacterial and fungal biofilm | 
NC(=O)C[C@H](N)C(=O)O [Asparagine, L-asparagine] | 10 to 30% |  | support (improve) bacterial biofilm growth |  | 
NC(CCCC(=O)O)C(=O)O (centres unmarked) [2 Aminoadipic Acid, 2-aminoadipic acid] |  |  |  |  | Reduce B Biofilm (S. aureus biofilm [1]; [4]): • (a single dot (●) signifies an effect in a range of about 10 to about 30% change); inhibition at 1 % (S. aureus biofilm [2]; [5]): 10 to 30%; anti-biofilm properties against bacterial biofilms (bacterial biofilms): anti-biofilm properties against bacterial biofilms
N=C(N)NCCC[C@H](N)C(=O)O [Arginine, L-arginine] |  |  | support (improve) bacterial biofilm growth | promote bacterial and fungal biofilm | activation at 1 % (S. aureus biofilm [1]): 10 to 30%; activation at 1 % (S. aureus biofilm [2]): 10 to 30%
CC(C)C[C@H](N)C(=O)O [Leucine, L-leucine] | 10 to 30% | 10 to 30% | support (improve) bacterial biofilm growth | promote bacterial and fungal biofilm | 
CCC(N)C(=O)O (centres unmarked) [2 Aminobutyric Acid, 2-aminobutyric acid] |  |  |  |  | neutral, effect on bacterial or fungal biofilms [3]: no effect on bacterial or fungal biofilms
C[C@@H](O)[C@H](N)C(=O)O [Threonine, L-threonine] | 10 to 30% |  | support (improve) bacterial biofilm growth | promote bacterial and fungal biofilm | 
N[C@@H](Cc1ccc(O)cc1)C(=O)O [Tyrosine, L-tyrosine] |  |  |  | neutral effect on biofilm | neutral, effect on bacterial or fungal biofilms [3]: no effect on bacterial or fungal biofilms
N[C@@H](Cc1c[nH]c2ccccc12)C(=O)O [Tryptophan, L-tryptophan] |  |  | support (improve) bacterial biofilm growth | promote bacterial and fungal biofilm | activation at 1 % (S. aureus biofilm [1]): 10 to 30%
NCCOP(=O)(O)O [Phosphoethanolamine, O-phosphoethanolamine] |  |  |  |  | Reduce B Biofilm (S. aureus biofilm [1]; [4]): • (a single dot (●) signifies an effect in a range of about 10 to about 30% change); inhibition at 1 % (S. aureus biofilm [2]; [5]): 10 to 30%; anti-biofilm properties against bacterial biofilms (bacterial biofilms): anti-biofilm properties against bacterial biofilms
NCC(=O)O [Glycine, L-glycine] | 10 to 30% | 10 to 30% | support (improve) bacterial biofilm growth | promote bacterial and fungal biofilm | 
OCC(O)CO [glycerol] |  |  |  | no measurable effect; also recorded: not found to have antibiofilm effect | 
C[C@H](N)C(=O)O [Alanine, L-alanine] |  | 10 to 30% | support (improve) bacterial biofilm growth | promote bacterial and fungal biofilm | 
NC(=O)NCCC[C@H](N)C(=O)O [Citrulline, L-citrulline] |  |  | support (improve) bacterial biofilm growth |  | activation at 1 % (S. aureus biofilm [1]): 10 to 30%; activation at 1 % (S. aureus biofilm [2]): 10 to 30%
CC[C@H](C)[C@H](N)C(=O)O [Isoleucine, L-isoleucine] |  | 10 to 30% | support (improve) bacterial biofilm growth | promote bacterial and fungal biofilm | 
O=C(O)[C@@H]1CCCN1 [Proline, L-proline] |  | 10 to 30% | support (improve) bacterial biofilm growth | promote bacterial and fungal biofilm | 
NCCS(=O)(=O)O [Taurine, L-taurine] | 10 to 30% | 10 to 30% | support (improve) bacterial biofilm growth |  | 
N[C@@H](Cc1c[nH]cn1)C(=O)O [Histidine, L-histidine] |  |  |  |  | neutral, effect on bacterial or fungal biofilms [3]: no effect on bacterial or fungal biofilms
NCCC[C@H](N)C(=O)O [Ornithine, L-ornithine] |  | 10 to 30% | support (improve) bacterial biofilm growth |  | 
CSCC[C@H](N)C(=O)O [Methionine, L-methionine] | 10 to 30% |  | support (improve) bacterial biofilm growth | promote bacterial and fungal biofilm | 
